Experiments:
[1] = system: Staphylococcus aureus ATCC 6538 and Escherichia coli ATCC 15225; experiment: Bacteriostatic MIC of release agents (modified standard MIC protocol, tube growth then streak onto TSA plate); format: cell-based; conditions: lower bacteriostatic limit (bacteriostatic MIC): no growth in tube, growth on TSA plate
Source text: Release agents for use in the described soaps and hard surface cleaners are those materials that can coat all or part of a microbe or spore wall, but not penetrate the cellular or spore wall, rendering the microbe unable to infect skin or reproduce at the time of application. Not only does the release agent coat the microbe, it also coats skin. Because the microbe coating and skin coating have similar charges, the microbe is repelled from the skin surface into the soap layer. After rinsing the soap, the material is disrupted and releases, allowing regrowth of the microbe. […] However, when the solution is swabbed onto a growth media plate, polymer disruption and release occur, allowing the microbe to resume growth. […] A series of compounds were tested to determine whether microbes exposed to these compositions and rinsed off were still viable to regrow. The standard MIC protocol (Internal NTC Microbiology Lab Method: MB-025) was followed for this work with some modifications. The organisms used were Staphylococcus aureus ATCC® 6538™ and Escherichia coli ATCC® 15225™ (94 TFM). All organisms were purchased from Microbiologics® and grown in the lab on Trypticase Soy Agar (TSA) at 35° C. The organisms were washed off of the agar into 0.1% peptone water and visually matched to a McFarland 0.5 Standard (equal to […]). Ten-fold serial dilutions were prepared for all chemicals tested in Mueller-Hinton II Broth (MH Broth). An initial 1:10 dilution in MH Broth was made and all subsequent dilutions were prepared by removing 1 mL from the previous dilution and transferring to a sterile MH Broth tube. For the initial screening, 1:10 serial dilutions were prepared through 1:1,000,000. One mL of the bacterial solution was added to each dilution tube and vortexed to mix. […] For subsequent round(s) of testing, the parts per million (ppm) of chemical was calculated and dilution tubes were prepared to bracket the ppm of growth/no-growth seen during the first round of testing. Each tube was prepared by adding in the calculated amount of MH Broth and test substance. The inoculation and incubation procedure was followed as stated above. […] For the second round of samples, each tube with no growth was streaked onto a Trypticase Soy Agar (TSA) plate to identify if the organism was still present in the tube but unable to grow in the presence of the chemical. All TSA plates were incubated for 18±4 hours at 37° C. and then observed for growth/no-growth.

[2] = system: Staphylococcus aureus ATCC 6538 and Escherichia coli ATCC 15225; experiment: as above; format: cell-based; conditions: upper bacteriostatic concentration limit of release agent; no initial growth in solution but growth after swabbing onto growth media plate

Compound	Lower Limit from 24-hour growth (%) [1]	Upper Limit from 1 min Exposure [2]
CCCCCCCCOC(=O)CC(C(=O)OCCCCCCCC)S(=O)(=O)[O-].[Na+] (stereo not shown) [Dioctyl sulfosuccinate sodium salt]	5.0%	5.0
CCCCCCCCCCCC(=O)NCCC[N+](C)(C)CC(=O)[O-] [Lauramidopropyle betaine]	0.1%	4.0
Cocamidopropyl betaine	1.0%	27.0
Cocamidopropyl hydroxy sultaine	0.5%	45.0
Disodium Cocamphodiacetate	2.0%	36.0
